According to patent publication US12521388B2, “Substituted dipyrido[1,2-a:1′,2′-d]pyrazines for treating viral infections” (Gilead Sciences, Inc., priority 2013, dated 2026):
Read-outs that look alike come from different tables or passages of the source.

Legend:
[1] = system: HIV-IIIb; experiment: Antiviral assay in MT4 cells; assay type: cell-based; conditions: Human immunodeficiency virus 1, 120 h; MT4 cells infected with HIV-IIIb (0.004 m.o.i.), 5 days incubation, CellTiter-Glo; average over time; read-out: EC50 nM in MT-4
Method: (§1) For the antiviral assay utilizing MT4 cells, 0.4 μL of […] test concentration of 3-fold serially diluted compound in DMSO was added to 40 μL of cell growth medium (RPMI 1640, 10% FBS, 1% penicilline/Streptomycine, 1% L-Glutamine, 1% HEPES) in each well of 384-well assay plates (10 concentrations) in quidruplicate. 1 mL aliquots of 2×10^6 MT4 cells are pre-infected for 1 and 3 hours respectively at 37° C. with 25 μL (MT4) or of either cell growth medium (mock-infected) or a fresh 1:250 dilution of an HIV-IIIb concentrated ABI stock (0.004 m.o.i. for MT4 cells). Infected and uninfected cells are diluted in cell growth medium and 35 μL of 2000 (for MT4) cells is added to each well of the assay plates. Assay plates were then incubated in a 37° C. incubator. After 5 days of incubation, 25 μL of 2× concentrated CellTiter-Glo™ Reagent (catalog #G7573, Promega Biosciences, Inc., Madison, WI) was added to each well of the assay plate. Cell lysis was carried out by incubating at room temperature for 2-3 minutes, and then chemiluminescence was read using the Envision reader (PerkinElmer).

[2] = Cytotoxicity in MT4 cells (mock-infected) in the antiviral assay; assay type: cell-based; conditions: human
Method: as §1

[3] = MT4 cells (mock-infected), MT4 cells, 5 days incubation, CellTiter-Glo, average over time, read-out: CC50 nM in MT-4

Row | Compound | EC50 [1] [nM] | CC50 at 5 days [2, 3] [nM] | CC50 at 5 days [2] [nM]
1 | O=C(NCc1ccc(F)cc1F)c1cn2c(c(O)c1=O)C(=O)N1C[C@H]3CC[C@@]1(CC3)C2 [Compound 2] | 4.4 | 53200 | –
2 | O=C(NCc1ccc(F)cc1F)c1cn2c(c(O)c1=O)C(=O)N1C3CCC1(CC3)C2 [Compound 3] | 1.9 | – | 26200
3 | O=C(NCc1c(F)cc(F)cc1F)c1cn2c(c(O)c1=O)C(=O)N1C[C@@H]3CCC[C@]1(C3)C2 [Compound 5] | 1.3 | 10600 | –
4 | O=C(NCc1ccc(F)cc1F)c1cn2c(c(O)c1=O)C(=O)N1C[C@H]3CCC[C@@]1(C3)C2 [Compound 6] | 2.6 | 9660 | –
5 | O=C(NCc1c(F)cc(F)cc1F)c1cn2c(c(O)c1=O)C(=O)N1C[C@H]3CCC[C@@]1(C3)C2 [Compound 7] | 2.8 | 13000 | –
6 | O=C(NCc1ccc(F)cc1F)c1cn2c(c(O)c1=O)C(=O)N1C[C@H]3CC[C@@]1(C3)C2 [Compound 11] | 3.2 | 27900 | –
7 | O=C(NCc1c(F)cc(F)cc1F)c1cn2c(c(O)c1=O)C(=O)N1C[C@@H]3CC[C@]1(C3)C2 [Compound 13] | 1.7 | 24300 | –
8 | C[C@@H](NC(=O)c1cn2c(c(O)c1=O)C(=O)N1C3CCC1(CC3)C2)c1c(F)cc(F)cc1F [Compound 14] | 6.2 | 13200 | –
9 | O=C(NCc1c(F)cc(F)cc1F)c1cn2c(c(O)c1=O)C(=O)N1C3CCC1(CC3)C2 [Compound 15] | 2.3 | 24000 | –

Further compounds by falling EC50 [1], results first:

Row | EC50 [1] [nM] | Compound | CC50 at 5 days [2, 3] [nM] | CC50 at 5 days [2] [nM]
10 | 3.5 | O=C(NCc1ccc(F)cc1F)c1cn2c(c(O)c1=O)C(=O)N1C[C@H]3C[C@]1(C2)C3 [Compound 1] | 49900 | –
11 | 3.2 | O=C(NCc1c(F)cc(F)cc1F)c1cn2c(c(O)c1=O)C(=O)N1C[C@H]3CC[C@@]1(C3)C2 [Compound 12] | 53200 | –
12 | 2.3 | O=C(NCc1cccc(Cl)c1F)c1cn2c(c(O)c1=O)C(=O)N1C[C@H]3CCC[C@@]1(C3)C2 [Compound 8] | 5300 | –
13 | 2.3 | O=C(NCc1ccc(F)cc1F)c1cn2c(c(O)c1=O)C(=O)N1C[C@@H]3CC[C@]1(C3)C2 [Compound 10, (3R,12aS)—N-(2,4-difluorobenzyl)-7-hydroxy-6,8-dioxo-2,3,4,6,8,12-hexahydro-1H-3,12a-methanodipyrido[1,2-a:1′,2′-d]pyrazine-9-carboxamide] | 24000 | –
14 | 1.6 | O=C(NCc1ccc(F)cc1F)c1cn2c(c(O)c1=O)C(=O)N1C[C@@H]3CCC[C@]1(C3)C2 [Compound 4] | 11000 | –
15 | 1.4 | C[C@@]12CCC[C@]3(Cn4cc(C(=O)NCc5c(F)cc(F)cc5F)c(=O)c(O)c4C(=O)N3C1)C2 [Compound 9] | 8660 | –
